We go through 28 molecules from US20060141546A1, “Bacterial test method by glycated label binding” (priority 2002, published 2006).

The subject of assay [1] is bacteria. Nature of the assay: Effect of divalent cations on ALP binding to bacteria (Example 7, Table 5, FIG. 12). The following applies: for O.D. at 405 nm, With ALP: bacteria plus cation (CaCl2 1 mM, MgCl2 1 mM, ZnCl2 0.2 mM) with ALP; for O.D. at 405 nm, No ALP: bacteria plus cation (CaCl2 1 mM, MgCl2 1 mM, ZnCl2 0.2 mM). On the procedure:
(§1) Bacterial cells (1 to 4.5×10^7 cells/mL) were washed twice with water after centrifugation to separate cells into a packed pellet from the supernatant liquid. The washed cells in pellet form were suspended in 20 μL of EPPS buffer (50 mM at pH 8.0) and 30 μL of water. […]
(§2) The mixture of glycated protein and bacterial cells was left at 25° C. for 15 minutes. The mixture was then centrifuged at 30,000 rpm for 30 minutes after which the bacterial cells formed a pellet at the bottom of the tube and were washed with water 4-5 times (50 μL). Centrifugation allows separation of glycoprotein bound to the bacteria cells from unbound glycated protein(s).
(§3) After washing, the bacterial pellets were suspended in 50 μL of borate buffer (25 mM at pH 9.0). A 5 μL aliquot of the suspension was assayed for detection of ALP binding by adding 5 μL of para-nitrophenol phosphate (PNPP, 100 mM), 50 μL sodium borate buffer (25 mM at pH 9.0) and 140 μL of water. […] The color was read at 405 nm using an ELISA plate reader between 15-30 min; the absorbance is directly proportional to the amount of ALP bound to the bacteria cell.

The subject of assay [2] is bacteria. In words: Competitive inhibition of ALP binding to bacteria (Example 3). The following applies: for binding to bacteria compared with ALP: from complete inhibition of ALP binding. The procedure:
(§4) Less than 20% was no inhibition (NI) and greater than 90% was complete inhibition (CI) with a binding constant great than ALP.
(§5) Bacterial cells (1 to 4.5×10^7 cells/mL) were washed twice with water after centrifugation to separate cells into a packed pellet from the supernatant liquid. The washed cells in pellet form were suspended in 20 ul of N-2-hydroxyethyl piperazine-N′-[3-propane sulfonic acid] EPPS buffer (50 mM at pH 8.0) and 30 μL of water. Glycated protein(s) (2-40 μg) were added. In some cases a glycated protein (2-40 μg) and bovine intestinal alkaline phosphatase (ALP) (2 μg or […]) were added and the binding of the glycated protein measured by the reduction of binding of ALP.
as §2
(§6) After washing, the bacterial pellets were suspended in 50 μL of borate buffer (25 mM at pH 9.0). A 5 μL aliquot of the suspension was assayed for detection of ALP binding by adding 5 μL of para-nitrophenol phosphate (PNPP, 100 mM), 50 μL sodium borate buffer (25 mM at pH 9.0) and 140 μL of water. […] The color is read at 405 nm using a ELISA plate reader between 15-30 min. The absorbance is directly proportional to the amount of ALP bound to the bacteria cell adhesions for glycated groups.
(§7) Only a protein binding to the cell adhesions for glycated groups causes the inhibition of the binding of ALP by bacteria. A protein binding to the cell adhesions for glycated groups provides a positive number in Table 2.

For assay [3], the system named is E. coli. Nature of the assay: ALP binding to bacteria in presence of carbohydrates, polysaccharides, glycopeptides and lectins (Example 5, Table 3). The following applies: ALP 100 mUnits plus 15 μg of additive. The procedure: (§8) Bacterial cells (1 to 4.5×10^7 cells/mL) were washed twice with water after centrifugation to separate cells into a packed pellet from the supernatant liquid. The washed cells in pellet form were suspended in 20 μl of EPPS buffer (50 mM at pH 8.0) and 30 μL of water. Hemoglobin (20 μg) was added as a blocking additive. Alkaline phosphatase (ALP) (100 mUnits) from bovine intestine and 15 μg of simple carbohydrates or proteoglycan or lectins, were added.
as §2
(§9) After washing, the bacterial pellets were suspended in 50 μL of sodium tetraborate buffer (25 mM at pH 9.5). A 5 uL aliquot of the suspension was assayed for detection of ALP binding by adding 5 μL of para-nitrophenol phosphate (PNPP, 100 mM), 50 μL sodium borate buffer (25 mM at pH 9.0) and 140 μL of water. […] The color is read at 405 nm using a ELISA plate reader between 15-30 min and the absorbance is directly proportional to the amount of ALP bound to the bacteria cell adhesions for glycated groups.

Assay [4] relates to S. faec. The description is as above. As to conditions: ALP 100 mUnits plus 15 μg of additive. On the procedure:
as §8, §2, §9

Assay [5] concerns E. coli. In words: Competitive inhibition of ALP binding to bacteria by added protein (Example 3, Table 2). The following applies: protein 2-40 μg added with ALP 2 μg. On the procedure: as §4, §5, §2, §6, §7
Assay [6] has as its system S. faec. The description is as above. As to conditions: protein 2-40 μg added with ALP 2 μg. The procedure: as §4, §5, §2, §6, §7
The subject of assay [7] is bacteria (Sf—Staph. faec.; Ec: E. coli). Nature of the assay: Effect of various cations on ALP binding to bacteria (Example 8, FIGS. 13-14). As to conditions: FIG. 13; for effect of various cations on ALP-binding (in words): cations 2 mM, bovine intestinal mucosa ALP. The procedure: as §1
The mixture of glycated protein and bacterial cells was left at 25° C. for 15 minutes. The mixture was then centrifuged at 30,000 rpm for 30 minutes after which the bacterial cells formed a pellet at the bottom of the tube and was washed with water 4-5 times (50 μL). Centrifugation allows separation of glycoprotein bound to the bacteria cells from unbound glycated protein(s).
as §3

Take `[Cl-].[Cl-].[Mg+2]` [MgCl2]: in the assay on bacteria [1], the “O.D. at 405 nm, With ALP” value is given as 0.44 O.D and the “O.D. at 405 nm, No ALP” value came to 0.20 O.D. polyhistidine [reference compound]: the “inhibition of the binding of ALP by bacteria (in words)” value (“inhibition of the binding … (in words)” for short) in the assay with bacteria [2] is “not found to inhibit ALP activity”. In the case of `O=C[C@@H](O)[C@H](O)[C@@H](O)[C@H](O)C(=O)O` [Iduronic acid], the “absorbance (405 nm) of ALP bound to bacteria” value in the assay with E. coli [3] was 1.9; in the assay with S. faec. [4], 2.0. For the molecule “Tamm-Horsfall protein (THP): glycated protein with one high-mannose and five complex or hybrid type chains”, the results for the “inhibition of the binding of ALP by bacteria” value with E. coli [5] and with S. faec. [6] were 40% and 49%, respectively. Turning to `[Cu+2]` [Cu^2+], the “effect of various cations on ALP-binding (in words)” value (“effect of various cations” for short) in assay [7] is given as “stimulate ALP-binding”. Take “α-1-Antitrypsin: glycated protein as received from suppliers”: the “inhibition of the binding of ALP by bacteria” value in the assay with E. coli [5] came to 84%; with S. faec. [6], 74%.

For the molecule Chondroitin sulfate B, the “absorbance (405 nm) of ALP bound to bacteria” value with E. coli [3] was found to be 0.9; with S. faec. [4], 0.5.

Consider `C[C@H](O)[C@@H](O)[C@@H](O)[C@H](O)C=O` [Fucose], for which the “absorbance (405 nm) of ALP bound to bacteria” value with E. coli [3] was 2.0; with S. faec. [4], 2.3. For `CC(=O)N[C@@H]1[C@@H](O)[C@H](O)[C@@H](CO)O[C@H]1O` [GlcNAc, N-Acetyl-β-D-Glucosamine], in that order: 2.0 and 2.0. For the molecule `[Ca+2].[Cl-].[Cl-]` [CaCl2], in the assay on bacteria [1], the “O.D. at 405 nm, With ALP” value is reported as 0.36 O.D and the “O.D. at 405 nm, No ALP” value was 0.23 O.D.

Take “α-1-glycoprotein (AGP): glycated protein with five complex or hybrid type chains”: in the assay on bacteria [2], the “binding to bacteria compared with ALP” value is on record as “better binders than ALP”. Moreover, the “inhibition of the binding of ALP by bacteria” value with E. coli [5] is 86%; in the assay on S. faec. [6], above 90%. As for “Transferrin: glycated protein, simple carbohydrates”, the “inhibition of the binding of ALP by bacteria” value in the assay with E. coli [5] and in the assay with S. faec. [6] was 75% throughout. With `[Fe+2]` [Fe^2+], the “effect of various cations” value in assay [7] is “stimulate ALP-binding”. Take `O=C[C@H](O)[C@@H](O)[C@H](O)[C@H](O)C(=O)O` [Glucuronic acid]: the “absorbance (405 nm) of ALP bound to bacteria” value was found to be 1.9 in the assay with E. coli [3] and 2.0 in the assay with S. faec. [4]. Take `O=C(O)CN(CCN(CC(=O)O)CC(=O)O)CC(=O)O` [EDTA, reference compound]: in assay [7] (EDTA 10 mM), the “ALP activity in the presence of EDTA” value was “total inhibition”. For Chondroitin sulfate A, the entries for the “absorbance (405 nm) of ALP bound to bacteria” value in the assay with E. coli [3] and with S. faec. [4] were 1.1 and 1.3, respectively. For polyarginine [reference compound], in the assay on bacteria [2], the “inhibition of the binding … (in words)” value was “not found to inhibit ALP activity”. On to Hyaluronic Acid, for which the “absorbance (405 nm) of ALP bound to bacteria” value in the assay on E. coli [3] was 1.8; with S. faec. [4], 2.0. As for Hemoglobin [reference compound], the “inhibition of the binding … (in words)” value with bacteria [2] was “did not inhibit the binding of ALP”. Also, the “inhibition of the binding of ALP by bacteria” value in the assay with E. coli [5] and in the assay with S. faec. [6] was below 20% each time. As for polylysine [reference compound], in the assay on bacteria [2], the “inhibition of the binding … (in words)” value is “not found to inhibit ALP activity”.

Turning to `[Co+2]` [Co^+2], in assay [7], the “effect of various cations” value is on record as “stimulate ALP-binding”. With `C[C@@H](O[C@H]1[C@H](O)[C@@H](CO)OC(O)[C@@H]1N)C(=O)O` (stereo partly shown) [Muramic Acid], the “absorbance (405 nm) of ALP bound to bacteria” value with E. coli [3] stood at 1.8; with S. faec. [4], 2.1. Take Concanavalin A: the “absorbance (405 nm) of ALP bound to bacteria” value in the assay with E. coli [3] came out at 0.0; in the assay on S. faec. [4] it was 0.1. For `CC(=O)N[C@@H]1[C@@H](O)[C@@H](O)[C@@H](CO)O[C@H]1O` [GalNAc, N-Acetyl-β-D-Galactosamine], in that order: 1.8 and 1.9.

B1: beta-2-Glycoprotein: glycoprotein with one N-link complex type chain (protein, UniProt P02749 20-345, looked up)
Beta-2-glycoprotein 1: GRTCPKPDDLPFSTVVPLKTFYEPGEEITYSCKPGYVSRGGMRKFICPLTGLWPINTLKCTPRVCPFAGILENGAVRYTTFEYPNTISFSCNTGFYLNGADSAKCTEEGKWSPELPVCAPIICPPPSIPTFATLRVYKPSAGNNSLYRDTAVFECLPQHAMFGNDTITCTTHGNWTKLPECREVKCPFPSRPDNGFVNYPAKPTLYYKDKATFGCHDGYSLDGPEEIECTKLGNWSAMPSCKASCKVPVKKATVVYQGERVKIQEKFKNGMLHGDKVSFFCKNKEKKCSYTEDAQCIDGTIEVPKCFKEHSSLAFWKTDASDVKPC
Turning to B1, the “inhibition of the binding of ALP by bacteria” value with E. coli [5] was 74%; in the assay on S. faec. [6], 61%.

B2: Myoglobin: non-glycated protein as received from suppliers (protein, UniProt P02144 2-154, looked up)
Myoglobin: GLSDGEWQLVLNVWGKVEADIPGHGQEVLIRLFKGHPETLEKFDKFKHLKSEDEMKASEDLKKHGATVLTALGGILKKKGHHEAEIKPLAQSHATKHKIPVKYLEFISECIIQVLQSKHPGDFGADAQGAMNKALELFRKDMASNYKELGFQG
B2: the “inhibition of the binding … (in words)” value in the assay on bacteria [2] is recorded as “did not inhibit the binding of ALP”. Moreover, the “inhibition of the binding of ALP by bacteria” value in the assay with E. coli [5] and in the assay on S. faec. [6] was below 20% each time.

B3: Uristatin: urinary trypsin inhibitor lacking the O-linked glycoconjugate chain (protein, UniProt P02760 206-352, looked up)
Inter-alpha-trypsin inhibitor …: AVLPQEEEGSGGGQLVTEVTKKEDSCQLGYSAGPCMGMTSRYFYNGTSMACETFQYGGCMGNGNNFVTEKECLQTCRTVAACNLPIVRGPCRAFIQLWAFDAVKGKCVLFPYGGCQGNGNKFYSEKECREYCGVPGDGDEELLRFSN
modifications: Inter-alpha-trypsin inhibitor light chain lacks O-linked glycan chain
As for B3, the “effect of fragmentation of the peptide chain on inhibition of ALP binding” value in the assay with bacteria [2] (fragmentation with protease) is listed as “did not impact the inhibition”. In the assay on bacteria [2], the “binding to bacteria compared with ALP” value is recorded as “better binders than ALP”. Moreover, the “inhibition of the binding of ALP by bacteria” value in the assay on E. coli [5] and with S. faec. [6] was above 90% throughout.

B4: Bikunin: urinary trypsin inhibitor with two glycoconjugate chains and two Kunitz inhibitor domains (protein, UniProt P02760 206-352, looked up)
Inter-alpha-trypsin inhibitor …: B3 Inter-alpha-trypsin inhibitor …
modifications: Inter-alpha-trypsin inhibitor light chain
As for B4, in the assay with bacteria [2], the “binding to bacteria compared with ALP” value is listed as “better binders than ALP”. In addition, the “inhibition of the binding of ALP by bacteria” value in the assay with E. coli [5] and in the assay with S. faec. [6] was above 90% in each case.
